Assay results from ChEMBL document CHEMBL1130183, “Synthesis of a novel sialic acid derivative (sialylphospholipid) as an antirotaviral agent” (J Med Chem, 1997).

Columns and labels:
Type in all cases: functional, organism-based
[1] = test system: Simian rotavirus; assay: Inhibitory concentration against Simian rotavirus SA-11 strain; conditions: Rotavirus A
[2] = test system: Simian rotavirus; assay: Inhibitory concentration against Simian rotavirus SA-11 strain; No inhibition
[3] = test system: Rotavirus; assay: Inhibitory concentration against human rotavirus MO strain; No inhibition
[4] = test system: Rotavirus; assay: Inhibitory concentration against human rotavirus MO strain

IC50 [1] | IC50 [4] | Structure (SMILES) | IC50 [2] | IC50 [3]
4280 µM | – | CC(=O)NC1C(O)CC(O)(C(=O)O)OC1C(O)C(O)CO (stereo not given) | – | –
– | – | CCCCCCCCCCCCCCCCCC(=O)OCC(COP(=O)([O-])OCC[N+](C)(C)C)OC(=O)CCCCCCCCCCCCCCCCC (stereo not given) | Not Active | Not Active
4.35 µM | 16.1 µM | CCCCCCCCCCCCCCCCCC(=O)OCC(COP(=O)(O)OCCCCCCCCOC1(C(=O)O)CC(O)C(NC(C)=O)C([C@H](O)[C@H](O)CO)O1)OC(=O)CCCCCCCCCCCCCCCCC (stereo not given in full) | – | –
